According to patent US4113946A, “Δ^2,3 -1,4-Morpholine-2-carboxylic acid derivatives as antibacterial agents” (Bristol-Myers Company, priority 1977, dated 1978):
≈ marks a conversion by molar mass, not a printed value. Counter-ions that a name gives are not always drawn. Like-named read-outs stand apart in the source and are kept apart here.

Tests used:
S. aureus Smith A9537 = experiment: M.I.C. by tube dilution, S. aureus Smith A9537; format: cell-based; conditions: Staphylococcus aureus
Ent. cloacae A9659 = experiment: M.I.C. by tube dilution, Ent. cloacae A9659; format: cell-based; conditions: Enterobacter cloacae, A9659, overnight 37° C.
Ent. cloacae A9657 = experiment: M.I.C. by tube dilution, Ent. cloacae A9657; format: cell-based; conditions: Enterobacter cloacae
K. pneumoniae A9977 = experiment: M.I.C. by tube dilution, K. pneumoniae A9977; format: cell-based; conditions: Klebsiella pneumoniae
E. coli Juhl A15119 = experiment: M.I.C. by tube dilution, E. coli Juhl A15119; format: cell-based; conditions: Escherichia coli, JUHLA15119
Pr. mirabilis A9900 = experiment: M.I.C. by tube dilution, Pr. mirabilis A9900; format: cell-based; conditions: Proteus mirabilis
Ps. aeruginosa A9843A = experiment: microbe, parasite or virus in culture; format: cell-based; conditions: Pseudomonas aeruginosa
[1] = system: S. aureus meth.-resist; A15097; experiment: M.I.C. by tube dilution, S. aureus meth.-resist A15097; format: cell-based; conditions: Staphylococcus aureus, at 10^-3 dil'n, overnight 37° C.
Sal. enteritidis A9531 = experiment: M.I.C. by tube dilution, Sal. enteritidis A9531; format: cell-based; conditions: Salmonella enterica, ENTERITIDIS
Ent. cloacae A9656 = experiment: M.I.C. by tube dilution, Ent. cloacae A9656; format: cell-based; conditions: Enterobacter cloacae
E. coli A9675 = experiment: M.I.C. by tube dilution, E. coli A9675; format: cell-based; conditions: Escherichia coli
K. pneumoniae A15130 = experiment: M.I.C. by tube dilution, K. pneumoniae A15130; format: cell-based; conditions: Klebsiella pneumoniae
D. pneumoniae A9585 = experiment: M.I.C. by tube dilution, D. pneumoniae A9585; format: cell-based; conditions: Streptococcus pneumoniae, A9585
Pr. morganii A15153 = experiment: M.I.C. by tube dilution, Pr. morganii A15153; format: cell-based; conditions: Morganella morganii
Str. pyogenes A9604 = experiment: M.I.C. by tube dilution, Str. pyogenes A9604; format: cell-based; conditions: Streptococcus pyogenes, +5% serum, 50% Nutrient Broth - 45% Antibiotic Assay Broth, overnight 37° C., read-out: M.I.C.
Ser. marcescens A20019 = experiment: M.I.C. by tube dilution, Ser. marcescens A20019; format: cell-based; conditions: Serratia marcescens
S. aureus BX1633-2 A9606 = experiment: M.I.C. by tube dilution, S. aureus BX1633-2 A9606; format: cell-based; conditions: Staphylococcus aureus, overnight 37° C.
St. pyrogenes = experiment: Inhibition of St. pyrogenes; format: cell-based; conditions: read-out: found to inhibit St. pyrogenes at a concentration of
in vivo = conditions: mouse, po, 100 mg/kg
[2] = SMITHA9537, +50% serum, at 10^-4 dilution, overnight 37° C.
[3] = SMITHA9537, at 10^-4 dilution, overnight 37° C.
[4] = at 10^-4 dilution, overnight 37° C., read-out: M.I.C.
[5] = overnight 37° C., read-out: M.I.C.
[6] = +5% serum, 50% Nutrient Broth - 45% Antibiotic Assay Broth, overnight 37° C., read-out: M.I.C.
[7] = SMITHA9537, at 10^-4 dilution, overnight 37° C., read-out: M.I.C.
[8] = A9657, overnight 37° C., read-out: M.I.C.

Structure (SMILES) | MIC (S. aureus Smith A9537; [2]) | MIC (Ent. cloacae A9659) | MIC (Ent. cloacae A9657; A9657) | MIC (K. pneumoniae A9977) | MIC (E. coli Juhl A15119) | MIC (Ps. aeruginosa A9843A) | MIC [1] | MIC (Sal. enteritidis A9531) | MIC (D. pneumoniae A9585; [6]) | MIC (Pr. morganii A15153; [4]) | MIC (Str. pyogenes A9604) | MIC (S. aureus BX1633-2 A9606; BX16332A9606, at 10^-2 dil'n) | MIC (S. aureus BX1633-2 A9606; BX16332A9606, at 10^-3 dil'n) | MIC (S. aureus Smith A9537; [7]) | MIC (Pr. mirabilis A9900) | MIC (Ent. cloacae A9656) | MIC (E. coli A9675) | MIC (K. pneumoniae A15130) | MIC (Pr. morganii A15153) | MIC (Ser. marcescens A20019) | further results
CC1=C(C(=O)O)N2C(=O)[C@@H](NC(=O)[C@H](N)c3ccccc3)[C@H]2CO1 [BC-L9, 7β-(D-α-aminophenylacetamido)-3-methyl-Δ^3 -O-2-isocephem-4-carboxylic acid hydrochloride] | 16 µg/mL | 125 µg/mL | 32 µg/mL | 16 µg/mL | 32 µg/mL | > 500 µg/mL | 32 µg/mL | 16 µg/mL | 0.5 µg/mL | 250 µg/mL | 0.5 µg/mL | 32 µg/mL | 8 µg/mL | – | – | – | – | – | – | – | MIC (S. aureus Smith A9537; [3]): 2 µg/mL; MIC (Pr. mirabilis A9900; [4]): 63 µg/mL; MIC (Ent. cloacae A9656; [5]): 500 µg/mL; MIC (E. coli A9675; [4]): 63 µg/mL; MIC (K. pneumoniae A15130; [4]): 63 µg/mL; MIC (Ser. marcescens A20019; [4]): 500 µg/mL
O=C(COc1ccccc1)NC1C(=O)N2C(C(=O)O)=C(Cc3ccccc3)OCC12 (stereo not drawn) [BC-L17, 7β-phenoxyacetamido-3-benzyl-Δ^3 -O-2-isocephem-4-carboxylic acid] | 1 µg/mL (≈ 2.45 µM) | > 125 µg/mL | > 125 µg/mL | > 125 µg/mL | > 125 µg/mL | > 125 µg/mL | 125 µg/mL (≈ 306 µM) | 32 µg/mL (≈ 78.4 µM) | 0.25 µg/mL (≈ 0.612 µM) | – | 0.25 µg/mL (≈ 0.612 µM) | > 125 µg/mL | 8 µg/mL (≈ 19.6 µM) | 0.25 µg/mL (≈ 0.612 µM) | > 125 µg/mL | > 125 µg/mL | > 125 µg/mL | > 125 µg/mL | > 125 µg/mL | > 125 µg/mL | –
CC1=C(C(=O)O)N2C(=O)[C@@H](NC(=O)COc3ccccc3)[C@H]2CO1 (relative stereo) [BC-L8, 7β-phenoxyacetamido-3-methyl-O-2-isocephem-4-carboxylic acid] | 2 µg/mL (≈ 6.02 µM) | – | – | 32 µg/mL (≈ 96.3 µM) | – | 500 µg/mL (≈ 1500 µM) | 32 µg/mL (≈ 96.3 µM) | 8 µg/mL (≈ 24.1 µM) | 0.5 µg/mL (≈ 1.5 µM) | 500 µg/mL (≈ 1500 µM) | 0.5 µg/mL (≈ 1.5 µM) | 32 µg/mL (≈ 96.3 µM) | 2 µg/mL (≈ 6.02 µM) | 0.5 µg/mL (≈ 1.5 µM) | 16 µg/mL (≈ 48.1 µM) | – | – | – | – | – | MIC (Ent. cloacae A9659; read-out: M.I.C.): 500 µg/mL (≈ 1500 µM); MIC (Ent. cloacae A9657; [8]): 63 µg/mL (≈ 190 µM); MIC (E. coli Juhl A15119; [4]): 63 µg/mL (≈ 190 µM); MIC (Ent. cloacae A9656; [5]): 500 µg/mL (≈ 1500 µM); MIC (E. coli A9675; [4]): 250 µg/mL (≈ 752 µM); MIC (K. pneumoniae A15130; [4]): 500 µg/mL (≈ 1500 µM); MIC (Ser. marcescens A20019; [4]): 500 µg/mL (≈ 1500 µM)
CC1=C(C(=O)O)N2C(=O)[C@@H](N)[C@H]2CO1 (relative stereo) [BC-L61, 7β-Amino-3-methyl-Δ^3 -O-2-isocephem-4-carboxylic acid] | – | – | – | – | – | – | – | – | – | – | – | – | – | – | – | – | – | – | – | – | MIC (S. aureus Smith A9537; SMITHA9537, read-out: found to inhibit S. aureus A9537 at a concentration of): > 125 µg/mL; MIC (St. pyrogenes): > 8 µg/mL; MIC (E. coli Juhl A15119; read-out: found to inhibit E. coli A15119 at a concentration of): > 125 µg/mL; MIC (D. pneumoniae A9585; read-out: found to inhibit D. pneumoniae A9585 at a concentration of): > 8 µg/mL
CC1=C(C(=O)O)N2C(=O)[C@@H](NC(=O)C(N)c3ccccc3)[C@H]2CO1 (stereo partly drawn) [BC-L45, 7β-(α-amino-α-phenylacetamido)-3-methyl-Δ^3 -O-2-isocephem-4-carboxylic acid] | 8 µg/mL (≈ 24.1 µM) | 125 µg/mL (≈ 377 µM) | – | – | – | > 125 µg/mL | – | – | < 0.25 µg/mL | 63 µg/mL (≈ 190 µM) | < 0.25 µg/mL | – | 8 µg/mL (≈ 24.1 µM) | – | 8 µg/mL (≈ 24.1 µM) | 125 µg/mL (≈ 377 µM) | 32 µg/mL (≈ 96.6 µM) | 8 µg/mL (≈ 24.1 µM) | – | > 125 µg/mL | MIC (S. aureus Smith A9537; [3]): 1 µg/mL (≈ 3.02 µM); MIC (Ent. cloacae A9657; [8]): 4 µg/mL (≈ 12.1 µM); MIC (K. pneumoniae A9977; [4]): 4 µg/mL (≈ 12.1 µM); MIC (E. coli Juhl A15119; [4]): 4 µg/mL (≈ 12.1 µM); MIC ([1]; read-out: M.I.C.): 63 µg/mL (≈ 190 µM); MIC (Sal. enteritidis A9531; [4]): 4 µg/mL (≈ 12.1 µM); MIC (S. aureus BX1633-2 A9606; BX16332A9606, at 10^-2 dil'n, read-out: M.I.C.): 63 µg/mL (≈ 190 µM); concentration at 0.5 h (in vivo): 19400 ng/mL; concentration at 1 h (in vivo): 15700 ng/mL; concentration at 2 h (in vivo): 7300 ng/mL; concentration at 3.5 h (in vivo): 2900 ng/mL
COC(=O)CC1=C(C(=O)O)N2C(=O)[C@@H](NC(=O)COc3ccccc3)[C@H]2CO1 (relative stereo) [BC-L33, 7β-Phenoxyacetamido-3-carbomethoxymethylene-Δ^3 -O-2-isocephem-4-carboxylic acid] | 1 µg/mL (≈ 2.56 µM) | > 125 µg/mL | > 125 µg/mL | – | 125 µg/mL (≈ 320 µM) | > 125 µg/mL | > 125 µg/mL | 8 µg/mL (≈ 20.5 µM) | 0.06 µg/mL (≈ 0.154 µM) | – | 0.06 µg/mL (≈ 0.154 µM) | > 125 µg/mL | 16 µg/mL (≈ 41 µM) | 0.25 µg/mL (≈ 0.64 µM) | 32 µg/mL (≈ 82 µM) | > 125 µg/mL | > 125 µg/mL | > 125 µg/mL | > 125 µg/mL | > 125 µg/mL | MIC (K. pneumoniae A9977; [4]): 63 µg/mL (≈ 161 µM)
O=C(COc1ccccc1)NC1C(=O)N2C(C(=O)O)=C(CCc3ccccc3)OCC12 (stereo not drawn) [BC-L54, 7β-phenoxyacetamido-3-phenethyl-Δ^3 -O-2-isocephem-4-carboxylic acid] | – | > 125 µg/mL | > 125 µg/mL | > 125 µg/mL | – | > 125 µg/mL | 125 µg/mL (≈ 296 µM) | > 125 µg/mL | 0.03 µg/mL (≈ 0.071 µM) | – | 0.03 µg/mL (≈ 0.071 µM) | > 125 µg/mL | 8 µg/mL (≈ 18.9 µM) | 0.06 µg/mL (≈ 0.142 µM) | > 125 µg/mL | > 125 µg/mL | > 125 µg/mL | > 125 µg/mL | > 125 µg/mL | > 125 µg/mL | MIC (S. aureus Smith A9537; SMITHA9537, +50% serum, at 10^-4 dilution, overnight 37° C., read-out: M.I.C.): 4 µg/mL (≈ 9.47 µM); MIC (E. coli Juhl A15119; [4]): 0.5 µg/mL (≈ 1.18 µM)
